Measurements from ChEMBL document CHEMBL1136364, “Synthesis and antimalarial activity of 2-methoxyprop-2-yl peroxides derivatives” (Bioorg Med Chem Lett, 2003).

test system: Plasmodium falciparum; assay: In vitro antimalarial activity against Plasmodium falciparum FCR3; assay type: functional, organism-based

In order of falling IC50:
1. COC(C)(C)OOCCCC#N  12800 nM
2. CCOC(=O)CCCOOC(C)(C)OC  6950 nM
3. COCCOOC(C)(C)OC  3200 nM
4. CCCCCCCCOOC(C)(C)OC  2600 nM
5. COC(C)(C)OOCCC(C)C  1650 nM
6. CCCCCCOOC(C)(C)OC  1550 nM
7. CCCCCCCCCCCCCCCCCCOOC(C)(C)OC  1330 nM
8. COC(C)(C)OOCCCOc1ccccc1  870 nM
9. CCCCCCCOOC(C)(C)OC  800 nM
10. CCCCCCCCCCCCOOC(C)(C)OC  670 nM
11. COC(C)(C)OOCCCc1ccccc1  660 nM
12. COC(C)(C)OOCCCC1=CC[C@H]2C[C@@H]1C2(C)C  600 nM
13. COC(C)(C)OOCCc1ccccc1  520 nM
14. COC(C)(C)OOCCCCC1=CC[C@H]2C[C@@H]1C2(C)C  480 nM
15. CCCCCCCCCCCCCCCCOOC(C)(C)OC  440 nM
16. COC(C)(C)OOCCC1=CC[C@H]2C[C@@H]1C2(C)C  370 nM
17. C[C@@H]1CC[C@H]2[C@@H](C)C(=O)O[C@@H]3O[C@@]4(C)CC[C@@H]1[C@]32OO4 [ARTEMISININ]  55 nM
18. CO[C@H]1O[C@@H]2O[C@@]3(C)CC[C@H]4[C@H](C)CC[C@@H]([C@H]1C)[C@@]24OO3 [ARTEMETHER]  14 nM
